Test results reported in patent US20260232759A1, “PEPTIDES THAT INHIBIT INFECTION BY SARS-COV-2, THE VIRUS THAT CAUSES COVID-19 DISEASE” (Wisconsin Alumni Research Foundation, priority 2021, published 2026).
Starred links: 1 amine or outer side, 2 acyl side, 3 side chain; linkers in the order of their positions; H or OH if unused. Non-standard residues stand in square brackets, D forms with d. *: point of attachment. X2 = CC(C)CCC[C@@H](C)[C@H]1CC[C@H]2[C@@H]3CC=C4C[C@@H](OC(=O)CCOCCOCCOCCOCCNC(=O)C*)CC[C@]4(C)[C@H]3CC[C@]12C; X1 = O=C([C@H]1CNC[C@@H]1N[*:1])[*:2]; β3hE = N[C@@H](CCC(=O)O)CC(=O)O; β3hQ = NC(=O)CC[C@H](N)CC(=O)O; β3hD = NC(CC(=O)O)CC(=O)O; βAla = NCCC(=O)O

Target: T1, SARS-CoV-2 S (Severe acute respiratory syndrome coronavirus 2, UniProt P0DTC2)
T1 construct: expressed in transfected cells
Experiment: β-Gal complementation-based cell-cell fusion assay (S-protein-mediated fusion)
Conditions: for IC90: read-out: 90% inhibitory concentration (IC90), inhibition of S-mediated fusion

[1] = 50% inhibitory concentration (IC50), inhibition of S-mediated fusion
[2] = IC50, inhibition of S-mediated fusion

Substance | IC50 [1] | IC90 | IC50 [2]
Ac-[β3hD]IS[β3hQ]INASVVNIEYEIKKLEEVA[X1]KLEESLI[β3hD]L[β3hQ]ELGSGSGC(X2)-NH2 [α/β-SARS2 HRC QE-6] | ~20 nM | ~100 nM | –
Ac-[β3hD]IS[β3hQ]INASVVNIEYEI[X1]KLEEVAKKLEESLI[β3hD]L[β3hQ]ELGSGSGC(X2)-NH2 [α/β-SARS2 HRC QE-5] | ~1000 nM | – | –
Ac-[β3hD]IS[β3hQ]INASVVNIEYEI[X1]KLEEVA[X1]KLEESLI[β3hD]L[β3hQ]ELGSGSGC(X2)-NH2 [α/β-SARS2 HRC QE-7] | ~20 nM | ~100 nM | ~10 nM
Ac-[β3hD]IS[β3hQ]INASVVNIEYEI[X1]KLEEVA[X1]KLEESLI[β3hD]L[β3hQ]EL[βAla]SGS[βAla]C(X2)-NH2 [α/β-SARS2 HRC QE-17] | – | – | ~10 nM
Ac-[β3hD]IS[β3hQ]INASVVNIEYEI[X1]KLEEVA[X1]KLE[β3hE]SLI[β3hD]L[β3hQ]ELGSGSGC(X2)-NH2 [α/β-SARS2 HRC QE-8] | ~100 nM | – | –
Ac-[β3hD]IS[β3hQ]INASVVNI[β3hE]YEI[X1]KLEEVA[X1]KLEESLI[β3hD]L[β3hQ]EL[βAla]SGS[βAla]C(X2)-NH2 [α/β-SARS2 HRC QE-15] | – | – | ~50 nM
